From PubChem BioAssay (NCI)
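Here, GI50 denotes the concentration required for 50% inhibition of growth. At the TGI there is no net growth.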

Experiments:
Assay in all cases: NCI anticancer screen, dose series, 384-well format
MDA-MB-435 melanoma = test system: MDA-MB-435 melanoma
ACHN renal = test system: ACHN renal
K-562 leukemia = test system: K-562 leukemia
HCT-116 colon = test system: HCT-116 colon
NCI-H322M lung = test system: NCI-H322M lung
A498 renal = test system: A498 renal
MDA-MB-468 breast = test system: MDA-MB-468 breast
T-47D breast = test system: T-47D breast
DU-145 prostate = test system: DU-145 prostate
UO-31 renal = test system: UO-31 renal
MDA-MB-231 breast = test system: MDA-MB-231 breast
TK-10 renal = test system: TK-10 renal
MALME-3M melanoma = test system: MALME-3M melanoma
U251 glioblastoma = test system: U251 glioblastoma
COLO 205 colon = test system: COLO 205 colon
OVCAR-4 ovarian = test system: OVCAR-4 ovarian
SK-MEL-28 melanoma = test system: SK-MEL-28 melanoma
786-0 renal = test system: 786-0 renal
SF-295 CNS = test system: SF-295 CNS
A549 NSCLC = test system: A549 NSCLC
MOLT-4 leukemia = test system: MOLT-4 leukemia
LOX IMVI melanoma = test system: LOX IMVI melanoma
EKVX NSCLC = test system: EKVX NSCLC
HCT-15 colon = test system: HCT-15 colon
OVCAR-8 ovarian = test system: OVCAR-8 ovarian
SK-MEL-5 melanoma = test system: SK-MEL-5 melanoma
OVCAR-5 ovarian = test system: OVCAR-5 ovarian
HOP-92 NSCLC = test system: HOP-92 NSCLC
CCRF-CEM leukemia = test system: CCRF-CEM leukemia
SF-539 CNS = test system: SF-539 CNS
UACC-257 melanoma = test system: UACC-257 melanoma
HCC-2998 colon = test system: HCC-2998 colon
SK-OV-3 ovarian = test system: SK-OV-3 ovarian
SN12C renal = test system: SN12C renal
SNB-19 CNS = test system: SNB-19 CNS
OVCAR-3 ovarian = test system: OVCAR-3 ovarian
NCI-H522 lung = test system: NCI-H522 lung
NCI-H460 NSCLC = test system: NCI-H460 NSCLC

Work on `CCOC(=O)c1ccc2[nH]c(Cc3[nH]c4ccc(C(=O)OCC)cc4c3C)c(C)c2c1` yielded a GI50 (MDA-MB-435 melanoma) of 4.68 µM, a TGI (MDA-MB-435 melanoma) of 61.4 µM and a GI50 (ACHN renal) of 1.8 µM. For the same compound, the TGI (ACHN renal) was 8.24 µM, the GI50 (K-562 leukemia) was 0.356 µM and the TGI (K-562 leukemia) was 12.3 µM. The GI50 (HCT-116 colon) was 0.472 µM, the TGI (HCT-116 colon) was 2.41 µM and the GI50 (NCI-H322M lung) was 4.26 µM. The TGI (NCI-H322M lung) was 19.7 µM, the GI50 (A498 renal) was 2.36 µM and the TGI (A498 renal) was 10.6 µM. For the same compound, the GI50 (MDA-MB-468 breast) was 1.08 µM, the TGI (MDA-MB-468 breast) was 7.27 µM and the GI50 (T-47D breast) was 2.88 µM. For the same compound, the TGI (T-47D breast) was 9.2 µM, the GI50 (DU-145 prostate) was 3.05 µM and the TGI (DU-145 prostate) was 17 µM. For the same compound, the GI50 (UO-31 renal) was 3.36 µM, the TGI (UO-31 renal) was 18.9 µM and the GI50 (MDA-MB-231 breast) was 0.601 µM. The TGI (MDA-MB-231 breast) was 12.1 µM, the GI50 (TK-10 renal) was 0.498 µM and the TGI (TK-10 renal) was 11.4 µM. The GI50 (MALME-3M melanoma) was 1.63 µM, the TGI (MALME-3M melanoma) was 6.41 µM and the GI50 (U251 glioblastoma) was 1.13 µM. For the same compound, the TGI (U251 glioblastoma) was 6.01 µM, the GI50 (COLO 205 colon) was 0.344 µM and the TGI (COLO 205 colon) was 14.5 µM. For the same compound, the GI50 (OVCAR-4 ovarian) was 3.11 µM, the TGI (OVCAR-4 ovarian) was 14.3 µM and the GI50 (SK-MEL-28 melanoma) was 3.4 µM. It also gave a TGI (SK-MEL-28 melanoma) of 23.1 µM, a GI50 ([…]-0 renal) of 1.4 µM and a TGI (786-0 renal) of 11.7 µM. The GI50 (SF-295 CNS) was 0.464 µM, the TGI (SF-295 CNS) was 4.59 µM and the GI50 (A549 NSCLC) was 1.92 µM. For the same compound, the TGI (A549 NSCLC) was 14.6 µM, the GI50 (MOLT-4 leukemia) was 0.0514 µM and the TGI (MOLT-4 leukemia) was 0.274 µM. The GI50 (LOX IMVI melanoma) was 0.481 µM, the TGI (LOX IMVI melanoma) was 1.91 µM and the GI50 (EKVX NSCLC) was 4.62 µM. It also gave a TGI (EKVX NSCLC) of 18.2 µM, a GI50 (HCT-15 colon) of 0.0286 µM and a TGI (HCT-15 colon) of 6.55 µM. The GI50 (OVCAR-8 ovarian) was 1.56 µM, the TGI (OVCAR-8 ovarian) was 11.1 µM and the GI50 (SK-MEL-5 melanoma) was 1.23 µM. For the same compound, the TGI (SK-MEL-5 melanoma) was 2.8 µM, the GI50 (OVCAR-5 ovarian) was 2.73 µM and the TGI (OVCAR-5 ovarian) was 32.1 µM. It also gave a GI50 (HOP-92 NSCLC) of 2.07 µM, a TGI (HOP-92 NSCLC) of 7.98 µM and a GI50 (CCRF-CEM leukemia) of 0.763 µM. It also gave a TGI (CCRF-CEM leukemia) of 11.7 µM, a GI50 (SF-539 CNS) of 1.3 µM and a TGI (SF-539 CNS) of 7.85 µM. The GI50 (UACC-257 melanoma) was 9.7 µM, the TGI (UACC-257 melanoma) was 25.3 µM and the GI50 (HCC-2998 colon) was 1.56 µM. The TGI (HCC-2998 colon) was 16.1 µM, the GI50 (SK-OV-3 ovarian) was 4.64 µM and the TGI (SK-OV-3 ovarian) was 18.6 µM. It also gave a GI50 (SN12C renal) of 3.08 µM, a TGI (SN12C renal) of 12.6 µM and a GI50 (SNB-19 CNS) of 5.4 µM. It also gave a TGI (SNB-19 CNS) of 21.3 µM, a GI50 (OVCAR-3 ovarian) of 2.97 µM and a TGI (OVCAR-3 ovarian) of 12.7 µM. It also gave a GI50 (NCI-H522 lung) of 1.69 µM, a TGI (NCI-H522 lung) of 12.1 µM and a GI50 (NCI-H460 NSCLC) of 0.281 µM. It also gave a TGI (NCI-H460 NSCLC) of 2.07 µM.
